This is an account of results in patent US20250115598A1 (Anaxis Pharma Pty Ltd, priority 2021, published 2025).

The target of assay [1] is endogenous MLKL in U937 (Homo sapiens (Human), UniProt Q8NB16). Description: Degradation assay: endogenous MLKL in U937 (western blot). The following applies: U937, 24 h incubation, read-out: Degradation of endogenous MLKL in U937 (DC50 cell-based assay). As for the experimental part: Degradation Assay: Screening Compounds Procedure to Evaluate the Activity of Compounds in Degrading Endogenous MLKL in Human and Mouse Cell
endogenous MLKL in U937, sequence (Q8NB16 whole entry): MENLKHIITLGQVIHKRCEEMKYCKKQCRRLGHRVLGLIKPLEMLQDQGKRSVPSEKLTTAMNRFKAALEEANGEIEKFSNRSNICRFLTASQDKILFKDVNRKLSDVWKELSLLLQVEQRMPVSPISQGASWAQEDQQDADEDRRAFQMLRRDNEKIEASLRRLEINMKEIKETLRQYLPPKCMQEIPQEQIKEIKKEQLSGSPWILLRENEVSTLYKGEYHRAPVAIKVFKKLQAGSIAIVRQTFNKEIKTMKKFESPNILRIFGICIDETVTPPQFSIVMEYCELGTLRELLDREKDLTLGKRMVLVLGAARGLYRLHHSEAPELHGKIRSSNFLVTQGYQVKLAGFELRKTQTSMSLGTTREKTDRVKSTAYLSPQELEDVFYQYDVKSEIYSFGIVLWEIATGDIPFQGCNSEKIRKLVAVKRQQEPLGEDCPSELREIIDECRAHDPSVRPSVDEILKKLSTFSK
The mouse dermal fibroblast (MDF) cell line was seeded the day before the experiment in a 24-well plate at a cell density of […] per well in a volume of 0.5 mL per well and left to attach overnight. The human monocyte cell line (U937) was seeded on the day of the experiment in a 24-well plate at a cell density of […] per well in a volume of 0.5 mL per well.
The compound was diluted in DMSO with a starting concentration of 10 mM and titrated stepwise with a dilution of 1:5. 0.5 μL of the compound dilution was added to the appropriate well to achieve a final concentration of 10; 2; 0.4; 0.08 and 0.016 μM. A DMSO only well was included as control.
The cells were incubated for 24 h in the presence of the compound at 37° C. and 10% CO2.
After the 24 h incubation period, the medium was removed and cells washed with 0.5 mL PBS. The cells were then lysed directly in 60 μL of 1×SDS gel loading buffer.
The cell lysate was heat-denatured at […] for 10 min. 10 μL of lysate per well were run on 18-well 4-15% Criterion TGX stain free gels (BIO-RAD). The proteins were then transferred onto nitrocellulose membrane with a wet transfer protocol in the Criterion Blotter (BIO-RAD).
Membranes were blocked with 5% skim milk in TBST. Primary antibody against MLKL (clone 3H1, MABC604 Merck) was used at 1:2000 dilution in TBST with 1% BSA and left shaking over night at 4° C. After washes with TBST, the membranes were incubated with goat anti-rat IgG HRP-conjugated antibody (Southern Biotech) in 1% skim milk TBST at 1:10000 dilution for 1 h at room temperature. After TBST washes the bands were imaged on the ChemiDoc MP Imaging System (BIO-RAD) with Immobilion Western Chemiluminescent HRP Substrate Forte (Millipore). The loading control GAPDH was probed for with rabbit anti-GAPDH (CST 14C10) at 1:2000 dilution in 1% BSA TBST over night at 4° C. TBST washes were followed by incubation with goat anti-rabbit IgG HRP-conjugated antibody (Southern Biotech) in 1% skim milk TBST at 1:10000 dilution for 1 h at room temperature followed by TBST washes. The signal was detected as described above.
The band intensity was measured in the ImageLab Software (BIO-RAD) and the MLKL values adjusted for loading with GAPDH. The percentage of degradation was calculated by normalizing the compound treated values to the DMSO only control.

Assay [2] concerns the target endogenous MLKL in MDF (Mus musculus (Mouse), UniProt Q9D2Y4). Description: Degradation assay: endogenous MLKL in MDF (western blot). The note with it: MDF cells, 24 h incubation with compound, MLKL adjusted for loading with GAPDH, normalized to DMSO only control, read-out: Degradation of endogenous MLKL in MDF (DC50 cell-based assay). The essentials:
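MDF (seeded the day before) or U937 cells were treated 24 h at 37 °C, 10% CO2 with compound at 10, 2, 0.4, 0.08 and 0.016 μM final. Endogenous MLKL was quantified by western blot (anti-MLKL 3H1), normalized to GAPDH. Percent degradation was taken relative to DMSO control.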

In assay [3] the test system is Immortalised Mouse Dermal Fibroblasts (MDFs). Kind of assay: Cellular assay: inhibition of TSI induced necroptosis, CellTitre-Glo viability. The following applies: Mus musculus, Fibroblast; MDF, 3 hours TSI cocktail, Table 27; read-out: Inhibition of TSI-induced necroptosis (IC50 cell-based assay) in MDF. In a few lines:
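Immortalised mouse dermal fibroblasts (2200 cells/well) pretreated 30 min with compound, 10-point 1:3 series from 36 μM, 0.3% DMSO. Then 3 h at 37° C. with TNF (100 ng/ml), Smac mimetic (500 nM) and IDN-6556 (10 μM). CellTiter-Glo luminescence normalised to DMSO (100%) and DMSO+TSI (0%); IC50 from 4-parameter logistic fit.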

For assay [4], the target named is human MLKL (full length) (Homo sapiens (Human), UniProt Q8NB16). Kind of assay: KINOMEscan binding assay, human MLKL (full length). The following applies: hMLKL, Table 25; read-out: MLKL (KD). In a few lines: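 Binding constants were derived by fitting qPCR-quantified bead-retained kinase against compound concentration to the Hill equation, slope set at −1. Compound series were 3-fold over 11 points with 1% DMSO; most top concentrations were 30,000 nM. Kinases were T7-phage-tagged or HEK-293-produced with DNA tags.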
human MLKL (full length), sequence (Q8NB16 whole entry): as above

Structures are written as SMILES.

endogenous MLKL in MDF, sequence (Q9D2Y4 whole entry): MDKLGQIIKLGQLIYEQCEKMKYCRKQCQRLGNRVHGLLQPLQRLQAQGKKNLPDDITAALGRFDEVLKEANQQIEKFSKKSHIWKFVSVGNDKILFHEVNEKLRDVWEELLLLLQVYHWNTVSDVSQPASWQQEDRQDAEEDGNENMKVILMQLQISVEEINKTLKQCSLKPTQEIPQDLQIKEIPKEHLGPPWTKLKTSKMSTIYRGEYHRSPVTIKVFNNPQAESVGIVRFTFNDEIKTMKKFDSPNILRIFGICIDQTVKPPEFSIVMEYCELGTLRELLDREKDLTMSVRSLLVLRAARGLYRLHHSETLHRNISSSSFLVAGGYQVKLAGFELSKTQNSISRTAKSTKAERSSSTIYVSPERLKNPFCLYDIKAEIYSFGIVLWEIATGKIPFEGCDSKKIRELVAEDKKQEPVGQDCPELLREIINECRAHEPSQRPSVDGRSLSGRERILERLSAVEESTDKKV

Consider `C[C@H](Oc1cc(-c2nn(C)c3c(-c4cnn(C5CCN(C(=O)[C@H]6C[C@H](Nc7cccc8c7C(=O)N(C7CCC(=O)NC7=O)C8=O)C6)CC5)c4)cnc(N)c23)ccc1NS(=O)(=O)C(F)F)c1ccc(F)cc1` (stereo partly drawn) [Compound 1047, N-{4-[4-amino-1-methyl-7-(1-{1-[(trans)-3-{[2-(2,6-dioxopiperidin-3-yl)-1,3-dioxo-2,3-dihydro-1H-isoindol-4-yl]amino}cyclobutanecarbonyl]piperidin-4-yl}-1H-pyrazol-4-yl)-1H-pyrazolo[4,3-c]pyridin-3-yl]-2-[(1 S)-1-(4-fluorophenyl)ethoxy]phenyl}-1,1-difluoromethanesulfonamide], for which the DC50 in assay [1] and in assay [2] was less than 1000 nM throughout. In addition, the IC50 in assay [3] was less than 1000 nM. The Kd in assay [4] is less than 10 nM.
`C[C@H](Oc1cc(-c2nn(C)c3c(-c4cnn(C5CCN(C(=O)CC6CCN(c7cccc8c7C(=O)N(C7CCC(=O)NC7=O)C8=O)CC6)CC5)c4)cnc(N)c23)ccc1NS(=O)(=O)C(F)F)c1ccc(F)cc1` (stereo partly drawn) [Compound 1048, N-[4-(4-amino-7-{1-[1-(2-{1-[2-(2,6-dioxopiperidin-3-yl)-1,3-dioxo-2,3-dihydro-1H-isoindol-4-yl]piperidin-4-yl}acetyl)piperidin-4-yl]-1H-pyrazol-4-yl}-1-methyl-1H-pyrazolo[4,3-c]pyridin-3-yl)-2-[(1S)-1-(4-fluorophenyl)ethoxy]phenyl]-1,1-difluoromethanesulfonamide]: the DC50 in assay [1] was 1000 to 10000 nM; in assay [2], less than 1000 nM. Moreover, the IC50 in assay [3] was less than 1000 nM. Moreover, the Kd in assay [4] is less than 10 nM.
For the molecule `C[C@H](Oc1cc(-c2nn(C)c3c(-c4cnn(C5CCN(C(=O)C6CN(c7cccc8c7C(=O)N(C7CCC(=O)NC7=O)C8=O)C6)CC5)c4)cnc(N)c23)ccc1NS(=O)(=O)C(F)F)c1ccc(F)cc1` (stereo partly drawn) [Compound 1051, N-(4-{4-amino-7-[1-(1-{1-[2-(2,6-dioxopiperidin-3-yl)-1,3-dioxo-2,3-dihydro-1H-isoindol-4-yl]azetidine-3-carbonyl}piperidin-4-yl)-1H-pyrazol-4-yl]-1-methyl-1H-pyrazolo[4,3-c]pyridin-3-yl}-2-[(1S)-1-(4-fluorophenyl)ethoxy]phenyl)-1,1-difluoromethane-sulfonamide], the DC50 in assay [1] was 1000 to 10000 nM; in assay [2], less than 1000 nM. In assay [3], the IC50 was 1000 to 10000 nM. Also, in assay [4], the Kd fell in the range of 10 to 1000 nM.
Take `C[C@H](Oc1cc(-c2nn(C)c3c(-c4cnn(C5CCN(C(=O)C6CCN(c7cccc8c7C(=O)N(C7CCC(=O)NC7=O)C8=O)C6)CC5)c4)cnc(N)c23)ccc1NS(=O)(=O)C(F)F)c1ccc(F)cc1` (stereo partly drawn) [Compound 1054, N-(4-{4-amino-7-[1-(1-{1-[2-(2,6-dioxopiperidin-3-yl)-1,3-dioxo-2,3-dihydro-1H-isoindol-4-yl]pyrrolidine-3-carbonyl}piperidin-4-yl)-1H-pyrazol-4-yl]-1-methyl-1H-pyrazolo [4,3-c]pyridin-3-yl}-2-[(1S)-1-(4-fluorophenyl)ethoxy]phenyl)-1,1-difluoromethanesulfonamide]: the DC50 in assay [1] and in assay [2] was less than 1000 nM in each case. The IC50 in assay [3] is less than 1000 nM. Moreover, in assay [4], the Kd lay in the range of 10 to 1000 nM.
As for `Cc1ncsc1-c1ccc(CNC(=O)[C@@H]2C[C@@H](O)CN2C(=O)[C@@H](NC(=O)C2(F)CC2)C(C)(C)C)c(OCCCCCCn2cc(-c3cnc(N)c4c(-c5ccc(NS(=O)(=O)C(F)F)c(O[C@@H](C)c6ccc(F)cc6)c5)nn(C)c34)cn2)c1` [Compound 1057, (2S,4R)-N-[(2-{[6-(4-{4-amino-3-[4-(difluoromethanesulfonamido)-3-[(1S)-1-(4-fluorophenyl)ethoxy]phenyl]-1-methyl-1H-pyrazolo[4,3-c]pyridin-7-yl}-1H-pyrazol-1-yl)hexyl]oxy}-4-(4-methyl-1,3-thiazol-5-yl)phenyl)methyl]-1-[(2S)-2-[(1-fluorocyclopropyl)formamido]-3,3-dimethylbutanoyl]-4-hydroxypyrrolidine-2-carboxamide], the DC50 in assay [1] was less than 1000 nM; in assay [2], 1000 to 10000 nM. Further, the IC50 in assay [3] was in the range of 1000 to 10000 nM. Moreover, the Kd in assay [4] is 10 to 1000 nM.
Regarding `C[C@H](Oc1cc(-c2nn(C)c3c(-c4cnn(C5CCN(C(=O)[C@H]6CC[C@H](Nc7cccc8c7C(=O)N(C7CCC(=O)NC7=O)C8=O)CC6)CC5)c4)cnc(N)c23)ccc1NS(=O)(=O)C(F)F)c1ccc(F)cc1` (stereo partly drawn) [Compound 1058, N-{4-[4-amino-1-methyl-7-(1-{1-[(trans)-4-{[2-(2,6-dioxopiperidin-3-yl)-1,3-dioxo-2,3-dihydro-1H-isoindol-4-yl]amino}cyclohexane-carbonyl]piperidin-4-yl}-1H-pyrazol-4-yl)-1H-pyrazolo[4,3-c]pyridin-3-yl]-2-[(1S)-1-(4-fluorophenyl)ethoxy]phenyl}-1,1-difluoromethanesulfonamide], the results for the DC50 in assay [1] and in assay [2] were 1000 to 10000 nM and less than 1000 nM, respectively. For the same molecule, the IC50 in assay [3] is less than 1000 nM. The Kd in assay [4] fell in the range of 10 to 1000 nM.
`Cc1ncsc1-c1ccc(CNC(=O)[C@@H]2C[C@@H](O)CN2C(=O)[C@@H](NC(=O)C2(F)CC2)C(C)(C)C)c(OCCCCCn2cc(-c3cnc(N)c4c(-c5ccc(NS(=O)(=O)C(F)F)c(O[C@@H](C)c6ccc(F)cc6)c5)nn(C)c34)cn2)c1` [Compound 1068, (2S,4R)-N-[(2-{[5-(4-{4-amino-3-[4-(difluoromethanesulfonamido)-3-[(1S)-1-(4-fluorophenyl)ethoxy]phenyl]-1-methyl-1H-pyrazolo[4,3-c]pyridin-7-yl}-1H-pyrazol-1-yl)pentyl]oxy}-4-(4-methyl-1,3-thiazol-5-yl)phenyl)methyl]-1-[(2S)-2-[(1-fluorocyclopropyl)formamido]-3,3-dimethylbutanoyl]-4-hydroxypyrrolidine-2-carboxamide]: the DC50 is 1000 to 10000 nM in assay [1] and less than 1000 nM in assay [2]. Moreover, the IC50 in assay [3] was in the range of 1000 to 10000 nM. For the same molecule, the Kd in assay [4] fell in the range of 10 to 1000 nM.
With `C[C@H](Oc1cc(-c2nn(C)c3c(-c4cnn(C5CCN(C(=O)C6CC7(CCN(c8cccc9c8C(=O)N(C8CCC(=O)NC8=O)C9=O)CC7)C6)CC5)c4)cnc(N)c23)ccc1NS(=O)(=O)C(F)F)c1ccc(F)cc1` (stereo partly drawn) [Compound 1069, N-(4-{4-amino-7-[1-(1-{7-[2-(2,6-dioxopiperidin-3-yl)-1,3-dioxo-2,3-dihydro-1H-isoindol-4-yl]-7-azaspiro[3.5]nonane-2-carbonyl}piperidin-4-yl)-1H-pyrazol-4-yl]-1-methyl-1H-pyrazolo[4,3-c]pyridin-3-yl}-2-[(1S)-1-(4-fluorophenyl)ethoxy]phenyl)-1,1-difluoromethanesulfonamide], the DC50 in assay [1] and in assay [2] was less than 1000 nM each time. For the same molecule, in assay [3], the IC50 is less than 1000 nM. Also, in assay [4], the Kd lay in the range of 10 to 1000 nM.
